Results reported in paper PMC12598616, “Design and optimization of caspase-1-responsive fluorescent probes for pyroptosis imaging and anti-pyroptosis drug screening” (Chemical Science, 2025).

System: caspase-8
Test: Selectivity of probes: caspase-8
Format: biochemical, human
Details: caspase-8 1 μg/mL, 37 °C, 2 h, λex 510 nm, λem 585 nm
Text: The resin used for SPPS was purchased from GL Biochem (Shanghai, China). Lipopolysaccharide (LPS, L2630), Nigericin and ATP (11140965001) were purchased from Merck (Shanghai, China) and Invitrogen (Shanghai, China), respectively. Cell culture plates were sourced from Wuxi NEST Biotechnology. Recombinant human caspase-1, caspase-3, caspase-4, and caspase-8 were obtained from Abcam and MCE (Shanghai, China). Anti-cleaved caspase-1 antibody, anti-GAPDH antibody, and goat anti-Rabbit/anti-mouse lgG/HRP were purchased from CST (USA) and Beyotime […]
(Shanghai, China). […]
Medical College (ethical approval number ZJCLA-IACUC-20011003).
(also on this page, place not known: Wang,*f, Wang*abg Supplementary Information (SI) for Chemical Science. This journal is © The Royal Society of Chemistry 2025)
(1 picture or pasted object on this page, not shown here) […]
mixture was stirred for 3 h. […]
To investigate the sensitivity of the probes for caspase-1, varying concentration of caspase-1 (0, 0.2, 0.4, 0.6, 0.8, 1.0, 1.25, 1.5, 1.75, 2, 2.5, 3 U/mL) were incubated with FPy1 (5 μM), YPy1 (5 μM) and WPy1 (5 μM) respectively in caspase-1 assay buffer (50 mM HEPES, 50 mM NaCl, 0.1 % chaps, 5 % glycerol, 10 mM DTT, 10 mM EDTA) at 37 °C for 2 hours. Fluorescence spectra were recorded using Hitachi F-2700 spectrophotometer with an excitation at 510 nm (Photomultiplier voltage 700 V; Slit widths ex: 10 nm and em =5.0 nm). The fluorescence intensity of FPy1, YPy1 and WPy1 at 585 nm were plotted against the concentration of caspase-1, and a linear regression fitted from the corresponding concentration of caspase-1, and linear regression was applied to determine the slope k. The limit of detection (LoD) was calculated from 3σ/k, in which σ represents the standard deviation of 15 blank measurements. […]
The fluorescence intensity at 585 nm was measured on a Tecan Infinite M1000 Multi-function microplate reader (λex = 510 nm) at 37 °C every 2 minutes. The K M value of probes was determined from the Lineweaver-Burk plot. […]

Row | Substance | fluorescence response to caspase-8
1 | –FLTDG– [FPy1, RhoB donor, hNR quencher] | almost no response
2 | –YVADG– [YPy1, caspase-1-responsive FRET probe with recognition peptide –YVADG–; RhoB donor, hNR quencher] | almost no response
